Results from PubChem BioAssay AID1996.
Values after ≈ are worked out from the molar mass of the structure shown.

Conditions: buffer; pH 7.4; 200.0 µM

Structure (SMILES)	solubility kinetic [µg/mL]
Clc1ccc(-c2nc(N3CCOCC3)nc3ccccc23)cc1	< 0.2
c1coc(CN2CNc3nc4ccccc4n3C2)c1	35.2 (≈ 138 µM)
CCn1cc(C(=O)NCc2ccccc2F)c(=O)c2ccc(C)nc21	2.9 (≈ 8.55 µM)
O=C(CNC(=O)c1ccccc1)NCC(=O)OCC(=O)c1ccccc1Cl	50.1 (≈ 129 µM)
CC(=O)c1ccc(Sc2ccccc2N)c([N+](=O)[O-])c1	19.6 (≈ 68 µM)
Cc1ccc(N2C(=O)c3ccccc3C2C(=O)c2ccc(C)c(C)c2O)cc1 (stereo not given)	10.6 (≈ 28.5 µM)
Cc1ccc(NC(=O)COC(=O)C2=NNC(=O)CC2)c(Br)c1	> 55.2
Cc1nc(-c2noc(-c3ccc(Cl)cc3)n2)c(C(F)(F)F)o1	< 0.2
O=C(NC(=S)Nc1ncccn1)c1ccc(F)cc1	7.3 (≈ 26.4 µM)
OCC[NH+](CCO)CC(O)COc1ccc(Br)cc1.[Cl-] (stereo not given)	> 55.6
CN1CCN(CCC(=O)Nc2ccc(Br)cc2)CC1	48.5 (≈ 149 µM)
O=S(=O)(NC1=NCCCCC1)c1ccc(F)cc1F	> 43.2
CC(C)Cc1cc(C(=O)Nc2cccc(O)c2)no1	13.6 (≈ 52.2 µM)
CC(C)C(=O)NC(=S)Nc1ccc(S(=O)(=O)NC2CCCCC2)cc1	1 (≈ 2.61 µM)
N#C/C(=C\c1ccc[nH]1)C(=O)NCC1CCCO1 (stereo not given)	> 36.8
CCOC(=O)c1ccc(Nc2ncnc3ccccc23)cc1.Cl	1.7
COc1ccc(CCC(=O)OCc2csc(CC(=O)Nc3ccc(C)cc3)n2)cc1OC	9.9 (≈ 21.8 µM)
CN(C)C(CNC(=O)c1ccccc1C(F)(F)F)c1ccco1 (stereo not given)	> 48.9
O=C(NC(=S)Nc1cccnc1)c1cccc(Br)c1	8.1 (≈ 24.1 µM)
COc1ccccc1CNC(=O)CCc1cn(C)c2ccccc12	39.2 (≈ 122 µM)
Cc1ccc(S(=O)(=O)c2cc3ccccc3nc2N)cc1	0.5 (≈ 1.68 µM)
Nc1ccc(-c2cnc3ccccc3n2)cc1	27.4 (≈ 124 µM)
N#Cc1c(NCCO)ccc([N+](=O)[O-])c1NCCO	> 39.9
COc1ccc(C2SCC(=O)N2Cc2ccccc2)cc1 (stereo not given)	44.6 (≈ 149 µM)

Structure (SMILES)	solubility kinetic [µg/mL]
CS(=O)(=O)Nc1cccc(-c2cn3c(n2)SCC3)c1	40 (≈ 135 µM)
O=C(Nc1ccccc1)c1ccccc1NC(=O)[C@H]1CCCC[C@H]1C(=O)O	> 55
O=c1[nH]c2cc3c(cc2cc1CN(Cc1cccnc1)C(=S)NCc1ccco1)OCCO3	< 0.2
CC(C)NC(=O)c1ccc(COc2ccc(C(C)(C)C)cc2)o1	0.7 (≈ 2.22 µM)
O=S(=O)(NCCC1=CCCCC1)c1ccc(F)cc1	16.9 (≈ 59.6 µM)
CCCc1cc(=O)[nH]c(SCC(=O)Nc2ccc(Br)cc2)n1	1.1 (≈ 2.88 µM)
O=C(NCCC1CC1(Cl)Cl)c1ccc([N+](=O)[O-])cc1 (stereo not given)	36.9 (≈ 122 µM)
CS(=O)(=O)Nc1ccccc1C(=O)OCC(=O)NC1CC1	> 46.9
O=[N+]([O-])c1cccc(S(=O)(=O)NCCc2cccs2)c1	> 46.9
C=CCn1c(=NC(=O)c2cccs2)sc2cccc(OC)c21	< 0.4
CN1c2ccsc2C(=O)/C(=C\Nc2cccc(C(F)(F)F)c2)S1(=O)=O	< 0.4
Cc1nccn1Cc1ccccc1	24.7 (≈ 143 µM)
O=C(/C=C/c1ccco1)NC(=S)Nc1cccc(C(=O)O)c1	> 47.4
Cc1noc(C)c1COC(=O)CNC(=O)c1ccc(Cl)cc1	> 48.4
CSc1ncc2c(=O)[nH]c(-c3ccccc3)nc2n1	> 40.5
CSCC[C@H](NC(=O)c1cccc(S(=O)(=O)N2CCN(C)CC2)c1)c1nc2ccccc2[nH]1	> 73.1
COc1cc(/C=C/C(=O)OCC(=O)c2ccc[nH]2)cc(OC)c1OC	9.4 (≈ 27.2 µM)
O=C1/C(=C/c2ccc(F)cc2)Oc2cc(OC(=O)N3CCOCC3)ccc21	< 0.8
CCN(Cc1ccccc1)C(=O)COC(=O)c1cc(S(=O)(=O)Nc2ccccc2OC)ccc1O	6 (≈ 12 µM)
Cc1cc(C)c(C#N)c(SCc2ccc(C(=O)O)cc2)n1	> 44.8
Cc1ccc(C(=O)N2CCN(c3ncnc4c(C)csc34)CC2)cc1	4.3 (≈ 12.2 µM)
O=C(CSc1ccc(F)cc1)N1CCOCC1	> 38.3
O=C1CC(c2ccsc2)Sc2ccccc2N1 (stereo not given)	33.9 (≈ 130 µM)
Cc1cnc(NC(=O)CCc2ccccc2)s1	8.7 (≈ 35.3 µM)

Structure (SMILES)	solubility kinetic [µg/mL]
O=C(Nc1ccccc1Cl)c1csc(-c2cccnc2)n1	4.3 (≈ 13.6 µM)
COc1ccc(-c2c(C#N)c(N)nc(Sc3ccc(Cl)cc3)c2C#N)cc1	< 0.2
O=C(COC(=O)C1COc2ccccc2O1)Nc1ccccc1OC(F)F (stereo not given)	> 56.9
Cc1noc(NS(=O)(=O)c2ccc(NC(=O)c3cc4ccccc4o3)cc2)c1C	61.6 (≈ 150 µM)
Cc1cc(C(=O)N2CCc3ccccc3C2)no1	> 36.3
COC(=O)C(=C/C=C/c1cccnc1)C(=O)OC	> 37.1
Cc1ccc(-c2ccc(C(=O)NCCCNC(=O)c3cnccn3)o2)cc1Cl	6.3 (≈ 15.8 µM)
CCOc1ccc(NC2=NCCCS2)cc1	> 35.4
CCCCOc1ccc(CN=C(N)N)cc1Cl	> 38.4
CN(c1ncnc(N)c1[N+](=O)[O-])C1CCCCC1	> 37.7
CCOC(=O)/C(C#N)=C/c1c(Oc2cccc(C)c2)nc2ccccn2c1=O	0.7 (≈ 1.86 µM)
CCOc1ccc2oc(C(=O)NCC3CCCO3)c(C)c2c1 (stereo not given)	39.6 (≈ 131 µM)
CCc1ccc(OC(=O)c2cncc(Br)c2)cc1	4 (≈ 13.1 µM)
COC(=O)c1ccc(/C=C/c2nc3ccccc3c(=O)[nH]2)cc1	3.7 (≈ 12.1 µM)
CC1CC(C)CN(C(=O)CCCNC(=O)c2ccc(Cl)cc2)C1 (stereo not given)	> 50.5
CC(=O)c1cccc(NC(=O)c2cnccn2)c1	> 36.2
Cc1ccccc1OC(C)C(=O)Nc1ccc2c(c1)OCCO2 (stereo not given)	40.8 (≈ 130 µM)
O=C(OCC(=O)N1CCCC1)c1cc([N+](=O)[O-])ccc1Cl	> 46.9
Cc1cc(C)c(NC(=S)N(C)C)cc1C	> 33.4
COc1ccc(S(=O)(=O)N2CN3CCN(C3)C2)cc1OC	> 47
O=C(NCCc1ccccc1)C1CC(=O)N(C2CCCC2)C1 (stereo not given)	> 45.1
CCCN(Cc1cc2cc(C)ccc2[nH]c1=O)C(=O)c1ccccn1	> 50.3
Cc1nc(N2CCCCC2)sc1C=O	> 31.5
FC(F)(F)c1cccc(OCc2noc(-c3ccsc3)n2)c1	< 0.3

Structure (SMILES)	solubility kinetic [µg/mL]
O=C(Nc1ccccc1)C1CCCN1/C=C/C(=O)C(F)(F)F (stereo not given)	> 46.8
Cc1ccc(C)c(N2CN(CCC3=CCCCC3)CNC2=S)c1	38.7 (≈ 117 µM)
O=C1NC2(CCCCCC2)C(=O)N1Cc1ccccc1F	26 (≈ 89.6 µM)
NC(=O)c1ccccc1N1CCCCC1	> 30.6
COc1ccc(OC)c(NC(=O)COC(=O)CCCN=C2NS(=O)(=O)c3ccccc32)c1	6.4 (≈ 13.9 µM)
CCc1noc(C)c1C(=O)NCCc1ccc(F)cc1	> 41.4
O=C(NC1CC1)c1ccc(CSCc2ccccc2Cl)o1	> 48.3
NC(=S)Nc1ccc(Cl)cc1Cl	32.9 (≈ 149 µM)
CSc1ncccc1C(=O)OCC(=O)NC1CCCc2ccccc21 (stereo not given)	5.5 (≈ 15.4 µM)
Cc1ccc(C)n1Cc1ccccc1Cl	1.2 (≈ 5.46 µM)
O=C1CN(c2nc3nonc3nc2N2CCCCC2)CCN1	45.2 (≈ 149 µM)
COC(=O)c1ccc(COc2ccc(/C=N/O)cc2OC)o1	> 45.8
CC1=C([N+](=O)[O-])C(c2ccccc2Cl)NC(=O)N1C (stereo not given)	> 42.3
Cc1ccc(N2C(=O)CN(Cc3cccs3)C2=S)cc1C	< 0.3
COc1cc2sc(C)nc2c2ccccc12	2.9 (≈ 12.6 µM)
CSc1nc(-c2ccccc2F)c(C#N)c(=O)n1C	20.7 (≈ 75.2 µM)
Cc1cc(C)cc(C(=O)N2CCN(Cc3ccc4c(c3)OCO4)CC2)c1	> 52.9
Cc1ccc(NC(=O)CC2(CC(=O)O)CCCC2)cc1	> 41.3
NC(=S)Nc1c(Cl)cccc1Cl	> 33.2
Cc1cccc(OCC2CCCN(Cc3nc(C4CC4)no3)C2)c1 (stereo not given)	12.8 (≈ 39.1 µM)
O=C(COC(=O)CCc1ccc(S(=O)(=O)N2CCOCC2)cc1)Nc1ccccc1OC(F)F	49.5 (≈ 99.3 µM)
CN(CCOc1ccccc1)CC(=O)Nc1cccc(C#N)c1	43 (≈ 139 µM)
Cn1cccc1C(=O)NCc1ccc(Cl)cc1	> 37.3
O=C(CCCCC(=O)Nc1c(I)cc(I)c(C(=O)O)c1I)Nc1c(I)cc(I)c(C(=O)O)c1I	> 171

Structure (SMILES)	solubility kinetic [µg/mL]
Cc1ccc(NC(=S)N2CCCCCC2)cc1	> 37.3
COC(=O)c1c(C)oc(C)c1S(=O)(=O)NCc1ccc(Cl)cc1	5 (≈ 14 µM)
Cc1ccccc1NCc1nc2ccccc2n1C	5 (≈ 19.9 µM)
O=C(NCc1ccco1)/C(=C/c1ccc(Cl)cc1)NC(=O)c1ccco1	4 (≈ 10.8 µM)
Cc1cccn2c(=O)c(/C=N/O)c(NCc3ccccc3)nc12	< 0.2
CCN(CC)S(=O)(=O)c1ccc(C(=O)NC2=NCCS2)cc1	2.3 (≈ 6.74 µM)
CC(C)(C)N1C(=O)NC(=O)/C(=C\c2ccc3c(c2)CCN3CCCCl)C1=O	38 (≈ 97.5 µM)
CC(NC(=O)c1c(O)c2ccccc2n(C)c1=O)c1ccccc1 (stereo not given)	< 0.3
Cn1nc(C(F)(F)F)c(-c2ccccc2)c1NC(=O)CSCC(=O)O	> 56
CC(C)(C)C(=O)Nc1c(Cl)cccc1OC(F)(F)F	34.2 (≈ 116 µM)
CCN(c1cccc(C)c1)C1C(=O)c2ccccc2N1C(C)=O (stereo not given)	> 46.3
COc1ccc(-c2nc3n(c(=O)c2C#N)CCS3)c(OC)c1	> 47.3
O=[N+]([O-])c1ccccc1S(=O)(=O)N1CCN(Cc2ccccc2)CC1	24.4 (≈ 67.5 µM)
O=C(COC(=O)c1ccc(F)cc1F)Nc1ccc(Cl)cn1	3.9 (≈ 11.9 µM)
CNc1snc(C)c1C(=O)OC(C)C(=O)Nc1ccccc1 (stereo not given)	34.5 (≈ 108 µM)
O=c1oc2ccccc2nc1/C=C(\O)c1ccc(Br)cc1	19 (≈ 55.2 µM)
O=C(Nc1ccc(F)cc1)c1cccc2ccccc12	< 0.6
Nc1ccc(N2CCOCC2)cc1C(F)(F)F	33.9 (≈ 138 µM)
Cn1cccc1C(=O)NC(=O)COC(=O)CCNS(=O)(=O)c1ccc(Cl)cc1	13.8 (≈ 32.3 µM)
CN1C(=O)CSC1=Nc1ccc(F)cc1	28.7 (≈ 128 µM)
O=C1C2CCCN2C(c2ccco2)N1c1ccc(F)cc1 (stereo not given)	> 42.9
CN(CC(=O)Nc1ccc(F)c(F)c1F)C(=O)C1CCCO1 (stereo not given)	> 47.4
CC(C)NCC(O)c1ccc(O)c(O)c1.Cl (stereo not given)	> 37.2
CCN1CCc2c(OCC(=O)N3CCCCC3)cccc2C1=O	> 47.5
